Experimental data published in publication PMC6273433, “Design, Synthesis and Cytotoxicity of Novel Dihydroartemisinin-Coumarin Hybrids via Click Chemistry” (Molecules, 2016).
Read-outs that look alike come from different tables or passages of the source.

What was measured:
[1] = system: HCT-116 (human colorectal cancer cell line); test: MTT cytotoxicity assay, HCT-116 under anoxia or normoxia; type: cell-based; conditions: for HCT-116 Value = IC50(normoxia)/IC50(anoxia): HCT-116, activity promotion under anoxia, >100 set as 100; for IC50: Homo sapiens
Method: (§1) We focused our attention on the cytotoxicity of the four series of newly-synthesized compounds (10a–e, 11a–e, 12a–e, and 13a–e) under normoxic or anoxic conditions.
(§2) The data was calculated by the Logit method and presented as IC50 values in Table 1.
(§3) All of the newly-synthesized compounds were screened for in vitro cytotoxicity by MTT assay. The exponentially-growing MRC-5, HCT-116, MDA-MB-231, and HT-29 cells were allowed to grow until 80% confluency, the culture medium was discarded, digested with trypsin, separated centrifugally, then fresh culture medium was added and blown gently into single-cell suspension. Then, the cell suspension was seeded into each well of 96-well microculture plates at a concentration of 1.5 × 10^3–3 × 10^3 cells/well.
(§4) The cells were incubated with 50 μL of 2 mg/mL MTT solution for 4 h in a humidified incubator. The supernatant was discarded, and the media were then replaced with 200 μL of dimethyl sulfoxide to dissolve the purple colored formazan crystals formed in the wells, and their absorbances were measured at 492 nm with a microplate reader (Synergy-HT, BioTek Instruments, Winooski, VT, USA); 200 μL DMSO was set as the blank control.
(§5) The anoxia condition was achieved by placing cells in a sealed hypoxia incubator chamber (Catalog Number 27310, Stemcell Technologies, Inc., Vancouver, BC, Canada) filled with 5% CO2 and 95% N2.

[2] = system: MRC-5 (human fetal lung fibroblast cells, normal lung cell); test: MTT cytotoxicity assay, MRC-5 normal cells; type: cell-based; conditions: MRC5, MRC-5, normoxia, 96 h MTT
Method: as §1, §2, §3, §4

[3] = system: HT-29 (human colon carcinoma cell line, overexpresses high amounts of CA IX); test: MTT cytotoxicity assay, HT-29 under anoxia or normoxia; type: cell-based; conditions: for HT-29 Value = IC50(normoxia)/IC50(anoxia): HT-29, activity promotion under anoxia; for IC50: Homo sapiens
Method: as §1, §2, §3, §4, §5

[4] = system: MDA-MB-231 (human breast carcinoma cell line, CA IX negative); test: MTT cytotoxicity assay, MDA-MB-231 under anoxia or normoxia; type: cell-based; conditions: for IC50: Homo sapiens; for MDA-MB-231 Value = IC50(normoxia)/IC50(anoxia): MDA-MB-231, activity promotion under anoxia, >100 set as 100
Method: as §1, §2, §3, §4, §5

[5] = MTT cytotoxicity assay, summary statements over all cell lines; type: cell-based; conditions: human, MRC-5, HCT-116, MDA-MB-231 and HT-29 cells; 96 h MTT assay, four cell lines, normoxic or anoxic
Method: as §1, §2, §3, §4, §5

[6] = HCT-116, anoxia 24 h then normoxia 72 h, MTT, read-out: IC50 HCT-116 Anoxia
[7] = HCT-116, normoxia, 96 h MTT, read-out: IC50 HCT-116 Normoxia
[8] = HT-29, anoxia 24 h then normoxia 72 h, MTT, read-out: IC50 HT-29 Anoxia
[9] = HT-29, normoxia, 96 h MTT, read-out: IC50 HT-29 Normoxia
[10] = MDA-MB-231, anoxia 24 h then normoxia 72 h, MTT, read-out: IC50 MDA-MB-231 Anoxia
[11] = MDA-MB-231, normoxia, 96 h MTT, read-out: IC50 MDA-MB-231 Normoxia

melting point | SMILES | HCT-116 Value = IC50(normoxia)/IC50(anoxia) [1] | IC50 [1, 6] | IC50 [1, 7] | IC50 [2] | HT-29 Value = IC50(normoxia)/IC50(anoxia) [3] | IC50 [3, 8] | IC50 [3, 9] | IC50 [4, 10] | IC50 [4, 11] | MDA-MB-231 Value = IC50(normoxia)/IC50(anoxia) [4] | IC50 at 96 h [5]
76 to 78 °C | Cc1c(Cl)c(=O)oc2cc(OCc3cn(CCO[C@H]4O[C@@H]5O[C@@]6(C)CC[C@H]7[C@H](C)CC[C@@H]([C@H]4C)[C@@]57OO6)nn3)ccc12 [12d, 3-Chloro-7-(1-(2-(10β-dihydroartemisininoxy)ethyl)-1H-1,2,3-triazol-4-yl)methoxy-4-methyl-2H-chromen-2-one] | 2.71 | 5.86 µM | 15.9 µM | 62.3 µM | 6.16 | 3.63 µM | 22.4 µM | 43.5 µM | > 100 µM | 2.30 | –
71 to 73 °C | CCOC(=O)c1cc2ccc(OCc3cn(CCO[C@H]4O[C@@H]5O[C@@]6(C)CC[C@H]7[C@H](C)CC[C@@H]([C@H]4C)[C@@]57OO6)nn3)cc2oc1=O [12e, Ethyl 2-oxo-7-(1-(2-(10β-dihydroartemisininoxy)ethyl)-1H-1,2,3-triazol-4-yl)methoxy-2H-chromene-3-carboxylate] | 1.62 | 35.7 µM | 57.9 µM | 69.5 µM | 1.88 | 20.8 µM | 39 µM | 65.1 µM | > 100 µM | 1.54 | –
– | CC(=O)Nc1nnc(S(N)(=O)=O)s1 [AAZ, acetazolamide] | – | – | – | – | – | – | – | – | – | – | > 100 µM
69 to 71 °C | C[C@H]1[C@@H](OCCCn2cc(COc3ccc4c(C(F)(F)F)cc(=O)oc4c3)nn2)O[C@@H]2O[C@@]3(C)CC[C@H]4[C@H](C)CC[C@@H]1[C@@]24OO3 [13b, 7-(1-(3-(10β-Dihydroartemisininoxy)propyl)-1H-1,2,3-triazol-4-yl)methoxy-4-trifluoromethyl-2H-chromen-2-one] | 7.43 | 2.75 µM | 20.4 µM | 21.4 µM | 3.74 | 5.31 µM | 19.8 µM | 26.6 µM | > 100 µM | 3.76 | –
75 to 77 °C | Cc1cc(=O)oc2cc(OCc3cn(CCCO[C@H]4O[C@@H]5O[C@@]6(C)CC[C@H]7[C@H](C)CC[C@@H]([C@H]4C)[C@@]57OO6)nn3)ccc12 [13a, 7-(1-(3-(10β-Dihydroartemisininoxy)propyl)-1H-1,2,3-triazol-4-yl)methoxy-4-methyl-2H-chromen-2-one] | 2.95 | 9.65 µM | 28.5 µM | 26.2 µM | 4.30 | 6.4 µM | 27.5 µM | 36.1 µM | > 100 µM | 2.77 | –
68 to 70 °C | Cc1c(C)c2ccc(OCc3cn(CCCO[C@H]4O[C@@H]5O[C@@]6(C)CC[C@H]7[C@H](C)CC[C@@H]([C@H]4C)[C@@]57OO6)nn3)cc2oc1=O [13c, 7-(1-(3-(10β-Dihydroartemisininoxy)propyl)-1H-1,2,3-triazol-4-yl)methoxy-3,4-dimethyl-2H-chromen-2-one] | 8.95 | 2.13 µM | 19.1 µM | 27.8 µM | 4.23 | 2.8 µM | 11.9 µM | 4.17 µM | 59.6 µM | 14.29 | –
84 to 86 °C | Cc1c(C)c2ccc(OCc3cn(CCO[C@H]4O[C@@H]5O[C@@]6(C)CC[C@H]7[C@H](C)CC[C@@H]([C@H]4C)[C@@]57OO6)nn3)cc2oc1=O [12c, 7-(1-(2-(10β-Dihydroartemisininoxy)ethyl)-1H-1,2,3-triazol-4-yl)methoxy-3,4-dimethyl-2H-chromen-2-one] | 1.33 | 12.1 µM | 16 µM | 33.8 µM | 6.04 | 2.87 µM | 17.3 µM | 33.2 µM | > 100 µM | – | –
79 to 81 °C | Cc1cc(=O)oc2cc(OCc3cn(CCO[C@H]4O[C@@H]5O[C@@]6(C)CC[C@H]7[C@H](C)CC[C@@H]([C@H]4C)[C@@]57OO6)nn3)ccc12 [12a, 7-(1-(2-(10β-Dihydroartemisininoxy)ethyl)-1H-1,2,3-triazol-4-yl)methoxy-4-methyl-2H-chromen-2-one] | 1.50 | 18.3 µM | 27.4 µM | 37.4 µM | 3.11 | 10.6 µM | 33 µM | 47.7 µM | 125 µM | 2.63 | –
77 to 79 °C | C[C@H]1[C@@H](OCCn2cc(COc3ccc4c(C(F)(F)F)cc(=O)oc4c3)nn2)O[C@@H]2O[C@@]3(C)CC[C@H]4[C@H](C)CC[C@@H]1[C@@]24OO3 [12b, 7-(1-(2-(10β-Dihydroartemisininoxy)ethyl)-1H-1,2,3-triazol-4-yl)methoxy-4-trifluoromethyl-2H-chromen-2-one] | 0.35 | 24.4 µM | 8.47 µM | 18.5 µM | 4.62 | 2.46 µM | 11.3 µM | 14.7 µM | 40.1 µM | 2.73 | –
